Molecular target: T1, c-Met kinase (recombinant c-Met) (Homo sapiens, UniProt P08581)
T1 construct: 0.27 nM recombinant c-Met
Assay: In vitro kinase assay I (homogeneous time-resolved fluorescence tyrosine kinase assay)
Assay type: biochemical
Procedure, shortened: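 Biotinylated peptide (0.5 μM) phosphorylated by 0.2 nM recombinant c-Met with 50 μM MgATP, 60 min at room temperature, pH 7.4, 5% DMSO. EDTA stop; HTRF read with Eu-anti-phosphotyrosine antibody and streptavidin-APC. IC50 from 4-parameter logistic fit.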

T1 sequence (P08581 25-1390): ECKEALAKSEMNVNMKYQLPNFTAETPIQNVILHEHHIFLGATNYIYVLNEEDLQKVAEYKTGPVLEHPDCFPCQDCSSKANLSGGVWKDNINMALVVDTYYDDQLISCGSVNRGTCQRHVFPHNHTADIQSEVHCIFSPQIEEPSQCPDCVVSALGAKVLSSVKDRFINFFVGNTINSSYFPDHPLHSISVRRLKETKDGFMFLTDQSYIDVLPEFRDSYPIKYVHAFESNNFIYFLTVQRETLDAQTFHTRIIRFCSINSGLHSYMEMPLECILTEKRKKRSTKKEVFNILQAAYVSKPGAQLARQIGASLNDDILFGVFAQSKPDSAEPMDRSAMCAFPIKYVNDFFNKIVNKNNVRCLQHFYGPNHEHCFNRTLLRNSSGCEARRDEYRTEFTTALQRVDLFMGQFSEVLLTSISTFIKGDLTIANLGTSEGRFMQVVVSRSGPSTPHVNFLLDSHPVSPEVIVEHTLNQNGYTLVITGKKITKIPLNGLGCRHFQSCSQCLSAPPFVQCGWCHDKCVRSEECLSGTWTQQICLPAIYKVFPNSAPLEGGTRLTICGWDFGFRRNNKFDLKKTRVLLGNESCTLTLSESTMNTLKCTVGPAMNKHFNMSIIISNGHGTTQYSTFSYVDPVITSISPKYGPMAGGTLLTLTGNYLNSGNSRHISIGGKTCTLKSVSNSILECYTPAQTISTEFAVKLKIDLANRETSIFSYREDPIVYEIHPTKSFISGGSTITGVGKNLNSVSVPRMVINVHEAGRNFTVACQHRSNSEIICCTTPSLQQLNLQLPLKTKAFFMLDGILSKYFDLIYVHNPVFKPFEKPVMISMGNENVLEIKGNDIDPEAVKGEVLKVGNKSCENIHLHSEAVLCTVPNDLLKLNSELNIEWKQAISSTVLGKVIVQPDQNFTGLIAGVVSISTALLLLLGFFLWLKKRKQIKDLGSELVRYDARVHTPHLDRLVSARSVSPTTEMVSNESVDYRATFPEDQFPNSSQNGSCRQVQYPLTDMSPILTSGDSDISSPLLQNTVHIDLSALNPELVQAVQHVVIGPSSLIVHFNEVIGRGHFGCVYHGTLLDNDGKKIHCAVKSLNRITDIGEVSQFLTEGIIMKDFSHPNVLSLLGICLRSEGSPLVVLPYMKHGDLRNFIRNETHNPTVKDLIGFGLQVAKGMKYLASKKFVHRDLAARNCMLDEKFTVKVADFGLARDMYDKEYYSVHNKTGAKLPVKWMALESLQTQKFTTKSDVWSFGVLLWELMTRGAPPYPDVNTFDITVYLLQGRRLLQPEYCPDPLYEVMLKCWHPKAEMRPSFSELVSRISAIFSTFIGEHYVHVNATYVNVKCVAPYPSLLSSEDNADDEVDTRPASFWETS

SMILES | IC50 [nM]
CC(C)(O)COc1cnc(-c2cccc(Cc3nn(-c4ccc(F)c(F)c4)ccc3=O)c2)nc1 [Example 360, 1-(3,4-difluorophenyl)-3-{3-[5-(2-hydroxy-2-methylpropoxy)pyrimidin-2-yl]benzyl}pyridazin-4(1H)-one] | < 100
CC(c1cccc(-c2ncc(-c3cnn(C)c3)cn2)c1)c1nn(-c2ccc(F)c(F)c2)ccc1=O (single isomer, unassigned) [Example 238, 1-(3,4-difluorophenyl)-3-[(1S or R)-1-{3-[5-(1-methyl-1H-pyrazol-4-yl)pyrimidin-2-yl]phenyl}ethyl]pyridazin-4(1H)-one] | 100 to 1000
Cn1cc(-n2ccc(=O)c(Cc3cccc(-c4ncc(OCCO)cn4)c3)n2)cn1 [Example 264, 3-{3-[5-(2-hydroxyethoxy)pyrimidin-2-yl]benzyl}-1-(1-methyl-1H-pyrazol-4-yl)pyridazin-4(1H)-one] | < 100
CC(c1cccc(-c2ncc(Br)cn2)c1)c1nn(-c2cnn(C)c2)ccc1=O (single isomer, unassigned) [Example 242, 3-{(1R or S)-1-[3-(5-bromopyrimidin-2-yl)phenyl]ethyl}-1-(1-methyl-1H-pyrazol-4-yl)pyridazin-4(1H)-one] | < 100
Cn1cc(-n2ccc(=O)c(Cc3cccc(-c4ncc(OCC(O)c5ccncc5)cn4)c3)n2)cn1 (racemic) [Example 367, rac-3-(3-{5-[2-hydroxy-2-(pyridin-4-yl)ethoxy]pyrimidin-2-yl}benzyl)-1-(1-methyl-1H-pyrazol-4-yl)pyridazin-4(1H)-one] | < 100
Cn1cc(-n2ccc(=O)c(Cc3cccc(-c4cnccn4)c3)n2)cn1 [Example 38, 1-(1-methyl-1H-pyrazol-4-yl)-3-[3-(pyrazin-2-yl)benzyl]pyridazin-4(1H)-one] | 1000 to 3000
CCn1cc(-n2ccc(=O)c(Cc3cccc(-c4ncc(OCCn5cccn5)cn4)c3)n2)cn1 [Example 315, 1-(1-ethyl-1H-pyrazol-4-yl)-3-(3-{5-[2-(1H-pyrazol-1-yl)ethoxy]pyrimidin-2-yl}benzyl)pyridazin-4(1H)-one] | < 100
Cn1cc(-n2ccc(=O)c(Cc3cccc(-c4ncc(C(C)(C)O)cn4)c3)n2)cn1 [Example 167, 3-{3-[5-(1-hydroxy-1-methylethyl)pyrimidin-2-yl]benzyl}-1-(1-methyl-1H-pyrazol-4-yl)pyridazin-4(1H)-one] | < 100
CCn1cc(-n2ccc(=O)c(C(C)c3cccc(-c4ncc(OCC5(F)CCN(C(=O)OC(C)(C)C)CC5)cn4)c3)n2)cn1 (single isomer, unassigned) [Example 290, tert-butyl 4-({[2-(3-{(1R or S)-1-[1-(1-ethyl-1H pyrazol-4-yl)-4-oxo-1,4-dihydropyridazin-3-yl]ethyl}phenyl)pyrimidin-5-yl]oxy}methyl)-4-fluoropiperidine-1-carboxylate] | < 100
COCc1cnc(-c2cccc(C(C)c3nn(-c4cnn(C)c4)ccc3=O)c2)nc1 (single isomer, unassigned) [Example 220, 3-((1R or S)-1-{3-[5-(methoxymethyl)pyrimidin-2-yl]phenyl}ethyl)-1-(1-methyl-1H-pyrazol-4-yl)pyridazin-4(1H)-one] | < 100
CCn1cc(-n2ccc(=O)c(C(C)c3cccc(-c4ncc(COC)cn4)c3)n2)cn1 (single isomer, unassigned) [Example 217, 1-(1-ethyl-1H-pyrazol-4-yl)-3-((1S or R)-1-{3-[5-(methoxymethyl)pyrimidin-2-yl]phenyl}ethyl)pyridazin-4(1H)-one] | 100 to 1000
CCn1cc(-n2ccc(=O)c(Cc3cccc(NC(=O)OCCN4CCOCC4)c3)n2)cn1 [Example 115, 2-morpholin-4-ylethyl (3-{[1-(1-ethyl-1H-pyrazol-4-yl)-4-oxo-1,4-dihydropyridazin-3-yl]methyl}phenyl)carbamate] | < 100
CCOc1cnc(-c2cccc(C(CC)c3nn(-c4cnn(C)c4)ccc3=O)c2)nc1 (single isomer, unassigned) [Example 206, 3-{(1R or S)-1-[3-(5-ethoxypyrimidin-2-yl)phenyl]propyl}-1-(1-methyl-1H-pyrazol-4-yl)pyridazin-4(1H)-one] | < 100
CCn1cc(-n2ccc(=O)c(Cc3cccc(-c4ncc(COC)cn4)c3)n2)cn1 [Example 163, 1-(1-ethyl-1H-pyrazol-4-yl)-3-{3-[5-(methoxymethyl)pyrimidin-2-yl]benzyl}pyridazin-4(1H)-one] | < 100
Cn1cc(-n2ccc(=O)c(Cc3cccc(-c4ncc(OC5COC5)cn4)c3)n2)cn1 [Example 164, 1-(1-methyl-1H-pyrazol-4-yl)-3-{3-[5-(oxetan-3-yloxy)pyrimidin-2-yl]benzyl}pyridazin-4(1H)-one] | < 100
CCn1cc(-n2ccc(=O)c(C(C)c3cccc(-c4ncc(OCC5CCCO5)cn4)c3)n2)cn1 (single isomer, unassigned) [Example 298, 1-(1-ethyl-1H-pyrazol-4-yl)-3-[(1R or S)-1-{3-[5-(tetrahydrofuran-2-ylmethoxy)pyrimidin-2-yl]phenyl}ethyl]pyridazin-4(1H)-one] | < 100

The next lines start with the values.

IC50 [nM] | SMILES
< 100 | CN1CCN(CCOC(=O)Nc2cccc(Cc3nn(-c4cc(F)cc(F)c4)ccc3=O)c2)CC1 [Example 519, 2-(4-methylpiperazin-1-yl)ethyl (3-{[1-(3,5-difluorophenyl)-4-oxo-1,4-dihydropyridazin-3-yl]methyl}phenyl)carbamate]
< 100 | O=C(Nc1cccc(Cc2nn(-c3cc(F)c(F)c(F)c3)ccc2=O)c1)OCCn1cncn1 [Example 552, 2-(1H-1,2,4-triazol-1-yl)ethyl (3-{[4-oxo-1-(3,4,5-trifluorophenyl)-1,4-dihydropyridazin-3-yl]methyl}phenyl)carbamate]
< 100 | C[C@H](O)[C@@H](C)Oc1cnc(-c2cccc(Cc3nn(-c4cnn(C)c4)ccc3=O)c2)nc1 (single isomer, unassigned) [Example 376]
< 100 | COCCCc1cnc(-c2cccc(Cc3nn(-c4cnn(C)c4)ccc3=O)c2)nc1 [Example 439, 3-{3-[5-(3-methoxypropyl)pyrimidin-2-yl]benzyl}-1-(1-methyl-1H-pyrazol-4-yl)pyridazin-4(1H)-one]
< 100 | CCN(CC)CCCOC(=O)Nc1cccc(Cc2nn(-c3cnn(C)c3)ccc2=O)c1 [Example 571, 3-(diethylamino)propyl (3-{[1-(1-methyl-1H-pyrazol-4-yl)-4-oxo-1,4-dihydropyridazin-3-yl]methyl}phenyl)carbamate]
100 to 1000 | COCCOC(=O)Nc1cccc(C(C)c2nn(-c3cnn(C)c3)ccc2=O)c1 (single isomer, unassigned) [Example 653, 2-methoxyethyl (3-{(1R or S)-1-[1-(1-methyl-1H-pyrazol-4-yl)-4-oxo-1,4-dihydropyridazin-3-yl]ethyl}phenyl)carbamate]
< 100 | COCCOC(=O)Nc1cccc(Cc2nn(-c3cc(F)cc(F)c3)ccc2=O)c1 [Example 507, 2-methoxyethyl (3-{[1-(3,5-difluorophenyl)-4-oxo-1,4-dihydropyridazin-3-yl]methyl}phenyl)carbamate]
< 100 | COC(C)(C)Cn1cnc(-c2cccc(Cc3nn(-c4cnn(C)c4)ccc3=O)c2)n1 [Example 719, 3-{3-[1-(2-methoxy-2-methylpropyl)-1H-1,2,4-triazol-3-yl]benzyl}-1-(1-methyl-1H-pyrazol-4-yl)pyridazin-4(1H)-one]

Reference: US20120264735A1 (priority 2009, published 2012)
